Where “and” joins values, the source holds several entries; their conditions need not be identical. Identical values can stand only once. Calls of active or inactive are those of the source.
Columns and labels:
[1] = molecular target: T1, Heat shock factor protein 1 (Mus musculus, UniProt P38532); test: decrease of HSF1-responsive luciferase luminescence – cell-based, NIH3T3, dose retest, confirmation (AID 2382); assay type: functional;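 also: NIH3T3 fibroblasts with HSF1-driven luciferase reporter stressed by proteasome inhibitor MG132; luminescence from HSF1-driven luciferase expression after 8 hours of MG132 stress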
T1 sequence (P38532 whole entry): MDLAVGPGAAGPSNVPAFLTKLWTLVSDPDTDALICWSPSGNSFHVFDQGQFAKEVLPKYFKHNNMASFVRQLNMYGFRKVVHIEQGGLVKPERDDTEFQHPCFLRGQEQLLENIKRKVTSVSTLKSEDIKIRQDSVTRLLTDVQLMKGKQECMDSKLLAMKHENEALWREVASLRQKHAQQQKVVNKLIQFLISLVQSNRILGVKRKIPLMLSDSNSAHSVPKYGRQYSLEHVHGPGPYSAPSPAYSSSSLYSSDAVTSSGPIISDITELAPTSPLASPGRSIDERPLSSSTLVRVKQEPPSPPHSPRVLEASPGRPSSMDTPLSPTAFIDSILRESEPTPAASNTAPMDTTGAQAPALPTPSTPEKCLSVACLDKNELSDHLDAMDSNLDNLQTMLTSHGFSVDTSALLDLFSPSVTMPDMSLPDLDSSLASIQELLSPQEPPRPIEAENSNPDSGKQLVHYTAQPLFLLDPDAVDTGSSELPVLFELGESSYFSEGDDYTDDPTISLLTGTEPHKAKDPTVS

Cytochrome P450 2D6 = Cytochrome P450 2D6 (Homo sapiens, UniProt P10635);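 also: CYP2D6 member of a cytochrome P450 panel assay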
Chain of Cytochrome P450 2D6 (P10635 whole entry): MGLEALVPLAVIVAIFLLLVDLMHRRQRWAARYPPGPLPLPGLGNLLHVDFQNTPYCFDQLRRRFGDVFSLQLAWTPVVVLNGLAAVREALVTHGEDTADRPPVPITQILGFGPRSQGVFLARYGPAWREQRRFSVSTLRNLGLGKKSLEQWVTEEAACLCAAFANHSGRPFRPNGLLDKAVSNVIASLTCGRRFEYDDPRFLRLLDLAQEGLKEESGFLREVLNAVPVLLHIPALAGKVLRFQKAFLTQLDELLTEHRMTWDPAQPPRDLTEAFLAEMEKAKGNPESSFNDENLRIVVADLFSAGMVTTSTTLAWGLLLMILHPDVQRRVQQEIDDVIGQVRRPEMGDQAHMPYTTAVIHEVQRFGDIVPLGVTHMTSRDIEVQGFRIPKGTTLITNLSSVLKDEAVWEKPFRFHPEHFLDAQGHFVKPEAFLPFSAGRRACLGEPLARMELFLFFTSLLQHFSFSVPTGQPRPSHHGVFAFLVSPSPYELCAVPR

Cytochrome P450 2C9 = Cytochrome P450 2C9 (Homo sapiens, UniProt P11712)
Chain of Cytochrome P450 2C9 (P11712 whole entry): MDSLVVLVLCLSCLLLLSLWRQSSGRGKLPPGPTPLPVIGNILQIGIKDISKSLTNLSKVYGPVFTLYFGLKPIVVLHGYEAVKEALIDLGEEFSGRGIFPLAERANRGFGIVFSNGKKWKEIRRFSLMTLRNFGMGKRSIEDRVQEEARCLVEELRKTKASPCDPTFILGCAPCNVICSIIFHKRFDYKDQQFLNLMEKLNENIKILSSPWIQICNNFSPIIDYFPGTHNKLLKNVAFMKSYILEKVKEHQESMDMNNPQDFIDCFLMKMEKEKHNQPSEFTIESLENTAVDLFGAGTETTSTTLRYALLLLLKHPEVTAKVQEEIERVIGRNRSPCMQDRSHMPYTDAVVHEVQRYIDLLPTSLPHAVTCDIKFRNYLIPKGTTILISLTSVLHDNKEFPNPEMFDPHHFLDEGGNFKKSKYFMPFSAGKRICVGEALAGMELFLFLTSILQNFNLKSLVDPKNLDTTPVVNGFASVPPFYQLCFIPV

[2] = NIH3T3 cell viability loss – ATP luminescence, mouse fibroblasts, counter-screen, dose response (AID 2010); assay type: functional, cell-based;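 also: cells exposed to compound for about 90 hours before reading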
[3] = Trypanosoma cruzi growth suppression in host cells – NIH3T3 host cells, beta-gal luminescence, confirmation (AID 2044); assay type: functional, cell-based;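 also: intracellular parasites grown in NIH/3T3 mouse fibroblasts as host cells; luminescent beta-galactosidase reporter signal from transgenic T. cruzi replicating inside host cells; inhibitors lower the luminescence signal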
Cytochrome P450 2C19 = Cytochrome P450 2C19 (Homo sapiens, UniProt P33261); test: Cytochrome panel assay with activity outcomes. Panel member name: p450-cyp2c19 Compounds with AC50 equal or less than 10 uM are considered active; assay type: functional
Chain of Cytochrome P450 2C19 (P33261 whole entry): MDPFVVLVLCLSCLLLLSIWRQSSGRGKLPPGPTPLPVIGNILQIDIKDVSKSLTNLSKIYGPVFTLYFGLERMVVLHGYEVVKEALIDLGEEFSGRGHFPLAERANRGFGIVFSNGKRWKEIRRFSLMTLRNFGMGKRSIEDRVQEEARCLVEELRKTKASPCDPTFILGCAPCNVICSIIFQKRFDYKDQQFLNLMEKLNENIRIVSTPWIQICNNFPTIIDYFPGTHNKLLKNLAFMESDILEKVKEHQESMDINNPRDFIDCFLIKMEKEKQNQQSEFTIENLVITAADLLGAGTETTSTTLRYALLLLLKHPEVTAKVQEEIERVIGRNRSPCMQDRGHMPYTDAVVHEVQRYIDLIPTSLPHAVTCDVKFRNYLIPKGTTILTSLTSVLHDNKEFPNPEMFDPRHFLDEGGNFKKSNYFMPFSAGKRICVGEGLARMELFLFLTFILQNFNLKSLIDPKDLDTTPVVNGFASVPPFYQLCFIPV

[4] = tested on: Streptococcus sp. 'group A'; test: Streptococcus pyogenes SK(-)GAS viability under kanamycin – luminescence, BacTiterGlo, confirmation, counter-screen for streptokinase expression inhibitor project, dose response (AID 1900); assay type: functional, organism-based
Streptococcus = test: GAS UMAA2166 growth inhibition – luminescence, BacTiterGlo, counter-screen for streptokinase expression inhibitor project, dose response (AID 1915); assay type: functional, organism-based;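 also: potency for reduction of bacterial viability or growth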

Cc1ccc(OCC(O)CN2C(=O)NC(C)(C)C2=O)cc1C (configuration not stated)
EC50 [1]: > 195 µM (not active)

Cc1cc(C)c2nc(O)c(C(c3nnnn3CC3CCCO3)N3CCC(C)CC3)cc2c1 (configuration not stated)
EC50 [1]: > 195 µM (not active)

Cc1nn(-c2ccccc2)c2c1C(=O)N(Cc1ccccc1)C(=O)C(C)(C)C2
AC50 (Cytochrome P450 2D6): 0.891 µM (inconclusive)

Cc1cc(C(F)(F)F)n2nc(-c3cnn(C)c3C(F)(F)F)c(Cl)c2n1
AC50 (Cytochrome P450 2C9): 20 µM (inconclusive)

Clc1ccc(SCCN2CCNCC2)cc1
EC50 [2]: 9.8 µM (active) | EC50 [3]: 0.511 µM (active)

C/C(=N\Nc1nc2ccccc2[nH]1)c1ccc2c(c1)OCCO2
EC50 [2]: > 60 µM (not active) | EC50 [3]: 1.89 µM (active)

Cc1ccccc1OCC(=O)OCC(=O)c1ccc(-c2ccccc2)cc1
EC50 [1]: > 195 µM (not active)

CCCCN(C(=O)COc1ccc(C)cc1OC)c1c(N)n(CCC)c(=O)[nH]c1=O
EC50 [1]: > 195 µM (not active)

CC(C)c1ccc(NC(=O)c2cc3c(=O)n(C)c4ccccc4c3n2C)cc1
EC50 [2]: 16.2 µM (active) | EC50 [3]: 1.12 µM (active)

COC(=O)c1cc(NC(=O)/C=C/c2ccc3c(c2)OCO3)cc(C(=O)OC)c1
AC50 (Cytochrome P450 2C9): 0.126 µM (inconclusive)

CN(CC(=O)NCc1cccnc1)S(=O)(=O)c1ccc2c(c1)c(=O)n(C)c(=O)n2C
EC50 [1]: > 195 µM (not active)

C[N+]12CCC(CC1)[C@@H](OC(=O)C(O)(c1ccccc1)c1ccccc1)C2
AC50 (Cytochrome P450 2D6): 12.6 µM (inconclusive)

Cc1noc(C)c1-c1cncnc1N1CCN(C)CC1
AC50 (Cytochrome P450 2D6): 39.8 µM (inconclusive) | AC50 (Cytochrome P450 2C19): inconclusive

O=c1c2ccccc2ncn1-c1ccc([N+](=O)[O-])cc1[N+](=O)[O-]
EC50 [2]: > 60 µM (not active) | EC50 [3]: 0.524 µM (active)

CCN(c1ccccc1)S(=O)(=O)c1ccc(Cl)c(C(=O)N(CC2CCCO2)C2CCS(=O)(=O)C2)c1 (configuration not stated)
EC50 [1]: > 195 µM (not active)

CSc1nc(C)c(CCOC(=O)c2ccccc2)c(O)n1
AC50 (Cytochrome P450 2C9): 20 µM (inconclusive)

C=CCN1C(=O)C(Cc2ccc(OC)cc2)S/C1=N/N=C/c1ccco1 (configuration not stated)
EC50 [1]: > 195 µM (not active)

Cc1c(C(=O)Nc2nccs2)sc2nc(-c3cccs3)cc(C(F)(F)F)c12
AC50 (Cytochrome P450 2D6): 3.98 µM (inconclusive) | AC50 (Cytochrome P450 2C19; read-out: AC50): 2.82 µM (inconclusive)

Cc1c(Cl)c([N+](=O)[O-])nn1CC(=O)Nc1c(C)n(C)n(-c2ccccc2)c1=O
AC50 (Cytochrome P450 2C9): 14.1 µM (inconclusive) | AC50 (Cytochrome P450 2C19; read-out: AC50): 1.78 µM (inconclusive)

Cc1cc(C)cc(NC(=O)N2CCCC2C(=O)Nc2ccc(-n3cnnn3)c(C)c2)c1 (configuration not stated)
AC50 (Cytochrome P450 2C9): 20 µM (inconclusive)

COc1ccccc1CNc1ccnc(-c2ccccc2C(F)(F)F)n1
AC50 (Cytochrome P450 2C9): 0.0158 µM (inconclusive)

O=C(Cn1cnc2cc([N+](=O)[O-])ccc2c1=O)NC(=O)NCc1ccccc1
EC50 [2]: > 60 µM (not active) | EC50 [3]: 0.223 µM (active)

O=C(c1cnccn1)N1CCC2(CC1)CN(Cc1ccccc1)C2
AC50 (Cytochrome P450 2C9): 31.6 µM (inconclusive) | AC50 (Cytochrome P450 2C19; read-out: AC50): 15.8 µM (inconclusive)

COc1ccc(C(=O)Nc2ccc(S(=O)(=O)N3CCCC3)cc2)c(OC)c1
EC50 [2]: > 60 µM (not active) | EC50 [3]: 11.1 µM (active)

CCCNC(=O)c1c(C)cc(=O)oc1C
AC50 (Cytochrome P450 2C9): 0.112 µM (inconclusive)

COc1ccc(-n2c(-c3ccc(F)cc3)cnc2SCC(=O)NCc2ccco2)cc1
EC50 [1]: > 195 µM (not active)

COc1ccc(CCNC(=O)c2cc3c(=O)n4ccccc4nc3n(C3CCCCC3)c2=N)cc1
EC50 [2]: > 60 µM (not active) | EC50 [3]: 2.17 µM (active)

Cc1cc(N2CCOCC2)nc(SCc2ccc(Cl)cc2Cl)n1
AC50 (Cytochrome P450 2D6): 15.8 µM (inconclusive)

COc1cccc(-c2ccc3ncnc(NCc4cnc(C)cn4)c3c2)c1
AC50 (Cytochrome P450 2D6): 31.6 µM (inconclusive)

Cc1ccc(C)c(NC(=O)C2C3CCCC2C3c2ccccc2)c1 (configuration not stated)
AC50 (Cytochrome P450 2C9): 3.16 µM (inconclusive)

CCC(C(=O)NC(C)(C)C)N(C(=O)Cn1nnc(-c2cccs2)n1)c1cnc2ccccc2c1 (configuration not stated)
AC50 (Cytochrome P450 2D6): 28.2 µM (inconclusive)

CC(C)(C)OC(=O)N[C@@H](Cc1ccccc1)C(=O)NC[C@H]1CC[C@H](C(=O)N[C@@H](CC(=O)O)C(=O)O)CC1
EC50 [1]: > 195 µM (not active)

Nc1ccccc1Nc1cc(-c2ccccc2)nn1-c1ccccc1
EC50 [2]: > 60 µM (inconclusive) | EC50 [3]: 7.72 µM (active)

O=C1N=C(N2CCOCC2)S/C1=C\C=C/c1ccccc1
AC50 (Cytochrome P450 2C19; read-out: AC50): 35.5 µM (inconclusive)

Cc1ccc(N(Cc2ccco2)C(=O)c2ccc(N3CCCCC3)c([N+](=O)[O-])c2)cc1
EC50 [2]: > 60 µM (not active) | EC50 [3]: 1.27 µM (active)

Cc1ccc(/C=C/C(=O)Nc2ccc(O)c3c(=O)cc(-c4ccccc4Cl)oc23)cc1
EC50 [1]: > 195 µM (not active)

CCOC(=O)N1CCC(NC(=O)CS(=O)(=O)Cc2nc(-c3cccc(OC)c3)oc2C)CC1
AC50 (Cytochrome P450 2C19; read-out: AC50): 39.8 µM (inconclusive)

CC1(C)Cc2nc3[nH]c(=S)n(-c4ccccc4)c(=O)c3cc2CO1
EC50 [1]: > 195 µM (not active)

CN1C(=O)CC(NNC(=O)c2ccccc2)C1=O (configuration not stated)
AC50 (Cytochrome P450 2C19): inconclusive

Cc1nn2c(=O)c(Cl)c(C)[nH]c2c1-c1ccccc1
EC50 [1]: > 195 µM (not active)

O=[N+]([O-])c1nn(-c2ccccc2)[n+]([O-])c1N1CCN(c2ccccc2)CC1
EC50 [2]: > 60 µM (not active) | EC50 [3]: 0.483 µM (active)

O=[N+]([O-])c1cccc(/C=N\Nc2ccc3ccccc3n2)c1O
AC50 (Cytochrome P450 2C9): 1 µM (inconclusive) | AC50 (Cytochrome P450 2C19; read-out: AC50): 6.31 µM (inconclusive)

N=C(N)N/N=C/c1cccc(Cl)c1Cl
EC50 [2]: > 60 µM (not active) | EC50 [3]: 0.435 µM (active)

Cc1cccc(C)c1OC[C@H](C)N [(S)-MEXILETINE]
AC50 (Cytochrome P450 2D6): 7.94 µM (inconclusive) and 39.8 µM (inconclusive)

CC(=O)N1CCC2(CC1)CCN(c1ccc(-c3ccccc3)cc1)CC2
AC50 (Cytochrome P450 2C9): 25.1 µM (inconclusive)

O=C(CS(=O)(=O)Cc1ccccc1)NCC1CCCO1 (configuration not stated)
EC50 [1]: > 195 µM (not active)

CCOC(=O)c1cc2c(=O)n3ccccc3nc2n(C(C)C)/c1=N/C(=O)c1c(-c2ccccc2Cl)noc1C
EC50 [2]: > 30 µM (not active) | EC50 [3]: 2.4 µM (active)

O=C(NC(=S)N(CCCCO)C1CCCCC1)c1sc2ccccc2c1Cl
EC50 [4]: 0.891 µM (active) | EC50 (Streptococcus): 7.75 µM (active) | AC50 (Cytochrome P450 2D6): 22.4 µM (inconclusive)

Cc1c2c(n3c(nc4ccccc43)c1C#N)N(CCN(C)C)CC2
EC50 [2]: 20.6 µM (active) | EC50 [3]: 0.117 µM (active)

CCC(C)c1ccc(NC(=O)C2CC2)cc1 (configuration not stated)
EC50 [1]: > 195 µM (not active)

COC(=O)c1ccccc1NC(=O)C1CCN(C(=O)c2ccc(OC)cc2)CC1
AC50 (Cytochrome P450 2C9): 8.91 µM (inconclusive)

COc1cccc(C(=O)CC(=O)C(=O)Nc2cc(OC)c(OC)c(OC)c2)c1
EC50 [1]: > 195 µM (not active)

CC(C)C(=O)N1CCN(c2cc(N3CCN(C)CC3)c(F)cc2[N+](=O)[O-])CC1
EC50 [2]: > 60 µM (not active) | EC50 [3]: 0.625 µM (active)

FC(F)(F)c1cccc(NC(S)=NN=C(S)Nc2ccc(Cl)cc2)c1
EC50 [4]: 3.28 µM (active) | EC50 (Streptococcus): 5.47 µM (active)

COc1ccc(CCNCC(O)COc2cccc(C(C)=O)c2)cc1OC (configuration not stated)
EC50 [2]: > 60 µM (not active) | EC50 [3]: 0.225 µM (active)

CC1CC(OCC(O)CN2CCN(Cc3ccccc3)CC2)CC(C)(C)C1 (configuration not stated)
AC50 (Cytochrome P450 2C9): 0.0251 µM (inconclusive)

CCOc1ccc(-c2cc(C(=O)OC)nc3c2c(=O)n(C)c(=O)n3C)cc1
EC50 [4]: 0.063 µM (active) | EC50 (Streptococcus): 4.33 µM (active)

Cc1ccnc(NCn2nnc3ccccc32)c1
AC50 (Cytochrome P450 2C9): 22.4 µM (inconclusive)
